Consider six compounds from article PMC5355960, “Specific inhibition of CK2α from an anchor outside the active site” (Chemical Science, 2016).

In one assay the test system is 102 kinases. Conditions: cited from earlier work.
In assay [1] the target is CK2α (Homo sapiens, UniProt P68400). The note with it: for ΔH / ΔS: ITC.
Assay [2] relates to Jurkat cells. As to the kind of experiment: cells. The note with it: Homo sapiens, 72 h.
Another assay concerns FLT3. Conditions: read-out: IC50 FLT3; ref J.Med. Chem. (2011) 54:2:635; cited from earlier work.
The test system of assay [3] is CLK3. Conditions: read-out: IC50 CLK3; ref PLOS ONE (2014) 9:4; cited from earlier work.
Assay [4] concerns PIM1. Conditions: read-out: IC50 PIM1; ref J.Med. Chem. (2011) 54:2:635; cited from earlier work.
For the next assay, the system named is CDK1/Cyclin B. The note with it: read-out: IC50 CDK1/Cyclin B; ref J.Med. Chem. (2011) 54:2:635; cited from earlier work.
Assay [5] relates to HCT116 cells. The note with it: 72 hours.
The test system of a further assay is TBK1. Conditions: read-out: IC50 TBK1; ref J.Med. Chem. (2011) 54:2:635; cited from earlier work.
The test system of assay [6] is HCT116 cells. The assay is described as follows: cells. Conditions: Homo sapiens, HCT-116, 72 h.
For assay [7], the system named is Jurkat cells. The note with it: 72 hours.
Assay [8] has as its system CLK3. The note with it: read-out: IC50 CLK3; ref J.Med. Chem. (2011) 54:2:635; cited from earlier work.
For assay [9], the system named is A549 cells. As to the kind of experiment: cells. Conditions: Homo sapiens, A549, 72 h.
For the next assay, the system named is HIPK3. Conditions: read-out: IC50 HIPK3; ref J.Med. Chem. (2011) 54:2:635; cited from earlier work.
The next assay has as its system 238 kinases. The note with it: cited from earlier work.
Assay [10] deals with A549 cells. The note with it: 72 hours.
Assay [11] deals with PIM1. Conditions: read-out: IC50 PIM1; ref Biorg. Med. Chem. Lett. (2011) 21;22;6687; cited from earlier work.
The test system of another assay is CDK2/Cyclin E. Conditions: read-out: IC50 CDK2/Cyclin E; ref Eur. J. Med. Chem. (2014) 78:217-224; cited from earlier work.
The test system of another assay is PIM2. Conditions: read-out: IC50 PIM2; ref Biorg. Med. Chem. Lett. (2011) 21;22;6687; cited from earlier work.
The test system of a further assay is CLK1. The note with it: read-out: IC50 CLK1; ref PLOS ONE (2014) 9:4; cited from earlier work.
Assay [12] has as its system CK2α. Conditions: read-out: IC50 CK2α; ref J.Med. Chem. (2011) 54:2:635; cited from earlier work.
In another assay the test system is DAPK3. Conditions: read-out: IC50 DAPK3; ref J.Med. Chem. (2011) 54:2:635; cited from earlier work.
Assay [13] has as its system HCT116, Jurkat and A549 cells. Conditions: A549 vs IC50 (for pro-CAM4066: IC50 of CAM4066).
[14] abbreviates: HCT116, 2 × GI50, all time points (24, 48, 72 hours).

Where two headings read alike, the source gives them in different places.

Sequence of CK2α (P68400 2-329): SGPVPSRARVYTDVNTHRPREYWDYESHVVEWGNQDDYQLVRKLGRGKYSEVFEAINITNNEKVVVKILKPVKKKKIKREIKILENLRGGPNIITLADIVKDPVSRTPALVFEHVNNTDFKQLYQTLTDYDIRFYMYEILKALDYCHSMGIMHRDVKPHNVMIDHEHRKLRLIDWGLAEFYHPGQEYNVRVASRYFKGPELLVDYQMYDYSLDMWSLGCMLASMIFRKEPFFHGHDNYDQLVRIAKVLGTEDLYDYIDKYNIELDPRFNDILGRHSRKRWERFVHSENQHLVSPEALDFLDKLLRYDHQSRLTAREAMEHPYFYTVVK

`O=C(O)c1ccc2c(c1)nc(Nc1cccc(C(F)(F)F)c1)c1nc(NC3CC3)ncc12` [CX5279]: in the assay with 102 kinases (0.5 μM, 102 kinases), the “number of other kinases inhibited by 70% or greater” value is recorded as 4. Also, the Gini coefficient in the assay with 102 kinases (larger literature panel) is reported as 0.755.
On to `Nc1cccc(C(=O)O)c1` [compound 6], for which the “detectable binding by ITC” value at CK2α [1] is recorded as “no inhibition of phosphorylation at 500 μM or detectable binding by ITC”.
Usually GI50 stands for the concentration that inhibits growth by half. Low readings indicate more potent growth inhibition, high ones less potent growth inhibition. For `O=C(O)c1ccc2c(c1)nc(Nc1cccc(Cl)c1)c1ccncc12` [CX4945], the GI50 in the assay with Jurkat cells [2] is 5000 nM; with HCT116 cells [5] it was 5000 nM; in the assay on HCT116 cells [6], 4800 nM; in the assay on Jurkat cells [7], 4700 nM; in the assay with A549 cells [9] it was 17000 nM; with A549 cells [10], 16600 nM. Also, the “inhibition of the phosphorylation of CDC37 Ser13” value is on record as “reduced inhibition” in the assay on Cdc37 phosphoserine 13 (HCT116, 2 × GI50, 24 hours) and “very clear inhibition” in the assay with Cdc37 phosphoserine 13 (setting [14]). Further, the IC50 in the assay on FLT3 was 55 nM; in the assay on CLK3 [3] it was 90 nM; in the assay with PIM1 [4], 46 nM; in the assay with CDK1/Cyclin B, 56 nM; with TBK1, 35 nM; in the assay with CLK3 [8] it was 41 nM. The IC50 was 45 nM in the assay on HIPK3; 48 nM in the assay on PIM1 [11]; 1800 nM in the assay on CDK2/Cyclin E; 186 nM in the assay with PIM2; 82 nM with CLK1; […] in the assay with CK2α [12]. The IC50 with DAPK3 was 17 nM. In addition, the “number of other kinases inhibited by 70% or greater” value in the assay on 238 kinases (0.5 μM, screen size 238 kinases) is 26. In addition, the “number of other kinases inhibited with nanomolar IC50 values” in the assay with 238 kinases is reported as “at least twelve”. In addition, the Gini coefficient in the assay on 238 kinases (larger literature panel) was […]. Also, the “inhibition of the phosphorylation of AKT1 Ser129” value in the assay with AKT1 phosphoserine 129 (setting [14]) was “very clear inhibition”.
In the case of `COC(=O)c1cccc(NC(=O)CCNC(=O)CCNCc2ccc(-c3ccccc3)c(Cl)c2)c1` [pro-CAM4066], the 50% growth inhibitory concentration (GI50) was found to be 6000 nM in the assay with Jurkat cells [2]; 8800 nM in the assay with HCT116 cells [5]; 9000 nM in the assay with HCT116 cells [6]; 6300 nM in the assay on Jurkat cells [7] (listed as 8); 20000 nM in the assay on A549 cells [9]; 20200 nM with A549 cells [10] (listed as 8). Besides, the “inhibition of the phosphorylation of CDC37 Ser13” value with Cdc37 phosphoserine 13 (HCT116, 2 × GI50, 48 and 72 hours) is recorded as “the inhibition did increase”; in the assay on Cdc37 phosphoserine 13 (HCT116, 2 × GI50, 24 hours) it was “no inhibition”. Besides, the “inhibition of the phosphorylation of AKT1 Ser129” value with AKT1 phosphoserine 129 (HCT116, 2 × GI50, 24 hours) is “approximately 50%”. In addition, the “drop-off in the GI50 compared to the IC50” value in assay [13] is reported as 19-60 fold.
On CK2α [1], `Cc1ccc(O)c(C(=O)O)c1` [compound 5] gave a ΔH of -7.722 kcal/mol and a ΔS of -6.51 cal/mol/deg.
For `CCCOc1ccc(CN)cc1Cl.Cl` [compound 3], in that order: -5.047 kcal/mol and -2.28 cal/mol/deg.
